Data as given in patent US8022091B2, “Triazole derivative” (Taisho Pharmaceutical Co., Ltd., priority 2006, dated 2011).

target: T1, human Edg-1 (S1P1) (Homo sapiens, UniProt P21453); experiment: S1P1 binding assay: inhibition of [33P]-S1P binding to membrane fraction of HEK-293 cells transferred with the human Edg-1 (S1P1) gene; settings: test compound at 10 μM; inhibition of [33P]-S1P binding to the membrane fraction of HEK-293 cells expressing human Edg-1 (S1P1)
T1 construct: expressed in transfected cells; host or cells: HEK-293
T1 sequence (P21453 whole entry): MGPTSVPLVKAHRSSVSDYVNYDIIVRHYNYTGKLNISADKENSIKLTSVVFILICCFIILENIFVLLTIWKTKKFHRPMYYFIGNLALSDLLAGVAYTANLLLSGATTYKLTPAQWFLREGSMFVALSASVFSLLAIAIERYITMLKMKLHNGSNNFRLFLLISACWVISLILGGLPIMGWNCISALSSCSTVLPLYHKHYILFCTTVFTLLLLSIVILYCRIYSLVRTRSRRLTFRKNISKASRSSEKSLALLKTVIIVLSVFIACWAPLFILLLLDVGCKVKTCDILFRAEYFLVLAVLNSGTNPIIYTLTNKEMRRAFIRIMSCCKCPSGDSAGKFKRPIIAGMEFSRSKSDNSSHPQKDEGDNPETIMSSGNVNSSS
Description: The membrane fraction was obtained by treating the cells with a solubilizing buffer (1 mM Tris/HCl, pH 7.2) for 10 minutes on ice, centrifuging at 1000×g for 5 minutes to remove insoluble fractions, and then centrifuging at 40000×g for 30 minutes at 4° C. The resulting membrane fraction was dissolved in a binding buffer (20 mM Tris-HCl, pH 7.4, 100 mM NaCl, 15 mM NaF, 2 mM deoxypyridoxine, 4 mg/mL fatty acid-free BSA), and then [^33P]-S1P (manufactured by ARC, final concentration 0.1 nM) and a DMSO solution (final concentration of the compound 10^−5M, final concentration of DMSO 0.1%) of the test compound were added. Thereafter, the mixture was stirred and then treated for one hour at 30° C. Using a harvester, the membrane fraction was harvested onto unifilter-96 GF/C filter (manufactured by Perkin Elmer), washing was carried out four times with the binding buffer, and the filter was dried. Twenty five μL Microscint 0 (manufactured by Perkin Elmer) was added, and radioactivity was measured using Top Count NXT (manufactured by Packard) to calculate the amount (A) of [^33P]-S1P bound to the membrane fraction at the time when the compound was added.
The same procedure was carried out in the absence of the test compound, and the amount (B) of [^33P]-S1P bound was calculated. Further, the same procedure was carried out in the absence of the test compound by use of HEK-293 cells to which no Edg-1 (S1P1) gene was introduced, and the background amount (C) of [^33P]-S1P bound was calculated.
Inhibition rate (%)=[1−(A−C)/(B−C)]×100
Further, concentrations (IC50) at the time when binding in the absence of the test compound was inhibited by 50% were calculated. The membrane system binding assay was carried out in the presence of test compounds with various concentrations, and the Edg-1 (S1P1) binding inhibition rates were calculated using the equation above. Then, IC50 values were calculated using Origin (Lightstone Corp.), a software for data analysis.

inhibition at 10 µM [%]	Structure (SMILES)
70.8	CCn1c(Oc2ccc(F)cc2)nnc1[C@@H](C)NS(=O)(=O)c1cc(F)ccc1C [Compound 219]
93.7	Cc1c(C)c(C)c(S(=O)(=O)N[C@H](C)c2nnc(Oc3ccc(F)cc3)n2C)c(C)c1C [Compound 220]
69.2	CCn1c(Oc2ccc(F)cc2)nnc1[C@@H](C)NS(=O)(=O)c1cc(C)ccc1OC [Compound 221]
90.8	CCn1c(Oc2ccc(F)cc2)nnc1[C@@H](C)NS(=O)(=O)c1ccc(C#N)cc1 [Compound 223]
80.4	CCn1c(Oc2ccc(F)cc2)nnc1[C@@H](C)NS(=O)(=O)c1ccc(Cl)cc1Cl [Compound 226]
51.4	CCn1c(Oc2ccc(F)cc2)nnc1[C@@H](C)NS(=O)(=O)c1ccc(F)cc1F [Compound 227]
53.9	CCn1c(Oc2ccc(F)cc2)nnc1[C@@H](C)NS(=O)(=O)c1cc(OC)ccc1OC [Compound 228]
65.1	CCn1c(Oc2ccc(F)cc2)nnc1[C@@H](C)NS(=O)(=O)c1cccc(Cl)c1 [Compound 231]
68.7	CCn1c(Oc2ccc(F)cc2)nnc1[C@@H](C)NS(=O)(=O)c1ccc(C(C)C)cc1 [Compound 232]
87.1	CCn1c(Oc2ccc(F)cc2)nnc1[C@@H](C)NS(=O)(=O)c1cc(F)cc(Cl)c1C [Compound 233]
50.6	CCc1cc(Br)ccc1S(=O)(=O)N[C@H](C)c1nnc(Oc2ccc(F)cc2)n1CC [Compound 234]
82.9	CCn1c(Oc2ccc(F)cc2)nnc1[C@@H](C)NS(=O)(=O)c1ccc(Br)cc1C [Compound 235]
64.8	CCn1c(Oc2ccc(F)cc2)nnc1[C@@H](C)NS(=O)(=O)c1ccc(F)c(F)c1F [Compound 237]
82.5	CCn1c(Oc2ccc(F)cc2)nnc1[C@@H](C)NS(=O)(=O)c1cc(F)c(F)cc1Cl [Compound 240]
95.8	CCn1c(Oc2ccc(F)cc2)nnc1[C@@H](C)NS(=O)(=O)c1ccc(F)c(F)c1 [Compound 241]
85.9	CCn1c(Oc2ccc(F)cc2)nnc1[C@@H](C)NS(=O)(=O)c1ccc(Br)cc1F [Compound 242]
90	CCn1c(Oc2ccc(F)cc2)nnc1[C@@H](C)NS(=O)(=O)c1cc(F)c(Cl)cc1F [Compound 243]
94.6	CCn1c(Oc2ccc(F)cc2)nnc1[C@@H](C)NS(=O)(=O)c1cc(Br)c(F)cc1F [Compound 244]
89.3	CCn1c(Oc2ccc(F)cc2)nnc1[C@@H](C)NS(=O)(=O)c1cc(Cl)c(F)cc1F [Compound 245]
105	CCn1c(Oc2ccc(F)cc2)nnc1[C@@H](C)NS(=O)(=O)c1cc(C)c(Cl)cc1Cl [Compound 248]
59	CCn1c(Oc2ccc(F)cc2)nnc1[C@@H](C)NS(=O)(=O)c1cc(C(F)(F)F)ccc1Cl [Compound 251]
82.8	CCn1c(Oc2ccc(F)cc2)nnc1[C@@H](C)NS(=O)(=O)c1cccc(F)c1 [Compound 252]
75.1	CCn1c(Oc2ccc(F)cc2)nnc1[C@@H](C)NS(=O)(=O)c1cc(Cl)ccc1OC [Compound 254]
86.4	CCn1c(Oc2ccc(F)cc2)nnc1[C@@H](C)NS(=O)(=O)c1c(C)cc(Cl)cc1Cl [Compound 255]
85.2	CCn1c(Oc2ccc(F)cc2)nnc1[C@@H](C)NS(=O)(=O)c1cc(F)c(F)cc1F [Compound 256]
78.2	CCn1c(Oc2ccc(F)cc2)nnc1[C@@H](C)NS(=O)(=O)c1cc(Br)ccc1Br [Compound 257]
67.9	CCn1c(Oc2ccc(F)cc2)nnc1[C@@H](C)NS(=O)(=O)c1ccc(-c2ccno2)s1 [Compound 258]

inhibition at 10 µM [%]	Structure (SMILES)
74.1	CCn1c(Oc2ccc(F)cc2)nnc1[C@@H](C)NS(=O)(=O)c1ccc(Br)cc1Br [Compound 260]
73.6	CCn1c(Oc2ccc(F)cc2)nnc1[C@@H](C)NS(=O)(=O)c1ccc(F)c(C#N)c1 [Compound 261]
79.6	CCn1c(Oc2ccc(F)cc2)nnc1[C@@H](C)NS(=O)(=O)c1cc(C)cc(C)c1 [Compound 262]
82.6	CCn1c(Oc2ccc(F)cc2)nnc1[C@@H](C)NS(=O)(=O)c1ccc(OC(F)F)cc1 [Compound 263]
95.9	CCn1c(Oc2ccc(F)cc2)nnc1[C@@H](C)NS(=O)(=O)c1cccc(OC(F)F)c1 [Compound 264]
59.1	CCn1c(Oc2ccc(F)cc2)nnc1[C@@H](C)NS(=O)(=O)c1c(F)cc(F)cc1Br [Compound 265]
99	CCn1c(Oc2ccc(F)cc2)nnc1[C@@H](C)NS(=O)(=O)c1cc(F)cc(F)c1 [Compound 266]
89.6	CCn1c(Oc2ccc(F)cc2)nnc1[C@@H](C)NS(=O)(=O)c1ccc(Cl)cc1F [Compound 267]
99.9	CCn1c(Oc2ccc(F)cc2)nnc1[C@@H](C)NS(=O)(=O)c1cc(F)c(F)c(F)c1 [Compound 268]
91.5	CCn1c(Oc2ccc(F)cc2)nnc1[C@@H](C)NS(=O)(=O)c1ccc(F)cc1Br [Compound 269]
73	CCn1c(Oc2ccc(F)cc2)nnc1[C@@H](C)NS(=O)(=O)c1ccc(C(F)(F)F)cc1Br [Compound 270]
57.1	CCn1c(Oc2ccc(F)cc2)nnc1[C@@H](C)NS(=O)(=O)c1cc(C(F)(F)F)ccc1Br [Compound 271]
104	CCn1c(Oc2ccc(F)cc2)nnc1[C@@H](C)NS(=O)(=O)c1ccc(C)c(F)c1 [Compound 272]
71.6	CCn1c(Oc2ccc(F)cc2)nnc1[C@@H](C)NS(=O)(=O)c1ccc(F)cc1C [Compound 273]
53.5	CCn1c(Oc2ccc(F)cc2)nnc1[C@@H](C)NS(=O)(=O)c1cc(Cl)ccc1F [Compound 274]
107	CCn1c(Oc2ccc(F)cc2)nnc1[C@@H](C)NS(=O)(=O)c1ccc(Br)c(F)c1 [Compound 275]
94.4	CCn1c(Oc2ccc(F)cc2)nnc1[C@@H](C)NS(=O)(=O)c1ccc(Br)cc1Cl [Compound 276]
79.6	CCn1c(Oc2ccc(F)cc2)nnc1[C@@H](C)NS(=O)(=O)c1cc(C)ccc1F [Compound 279]
87.3	CCn1c(Oc2ccc(F)cc2)nnc1[C@@H](C)NS(=O)(=O)c1cccc(Cl)c1F [Compound 280]
60.6	CCn1c(Oc2ccc(F)cc2)nnc1[C@@H](C)NS(=O)(=O)CC1CCCCC1 [Compound 286]
106	CCn1c(Oc2ccc(F)cc2)nnc1[C@@H](C)NS(=O)(=O)c1ccc2c(c1)OCCO2 [Compound 289]
107	CCn1c(Oc2ccc(F)cc2)nnc1[C@@H](C)NS(=O)(=O)c1ccc2nsnc2c1 [Compound 292]
50.8	CCn1c(Oc2ccc(F)cc2)nnc1[C@@H](C)NS(=O)(=O)c1ccsc1 [Compound 294]
82.1	CCn1c(Oc2ccc(F)cc2)nnc1[C@@H](C)NS(=O)(=O)c1cc(C)sc1C [Compound 300]
78.8	CCn1c(Oc2ccc(F)cc2)nnc1[C@@H](C)NS(=O)(=O)c1ccc(OC)cc1OC [Compound 301]
77.4	CCn1c(Oc2ccc(F)cc2)nnc1[C@@H](C)NS(=O)(=O)c1ccc(C(F)(F)F)cc1Cl [Compound 303]
